# Peptide text beside a SMILES is read from it.
# How the values were obtained:
# [1] = tested on: mTNF-α secretion by J774A.1 cells; assay: mTNF-α secretion by LPS-stimulated J774A.1 cells, ELISA; assay type: cell-based, mouse; conditions: 24 h, mean of n = 3; for inhibition of mTNF-α: J774A.1 cells, 100 ng/ml LPS, Fig. 3D
# Protocol: The murine monocyte/macrophage cell line J774A.1 was obtained from the American Type Culture Collection (ATCC, USA), grown in Dulbecco’s modified Eagle’s medium (Gibco Laboratories, USA), and cultured at 37°C in humidified 5% CO2. The culture medium was supplemented with 10% fetal bovine serum and 2 mM glutamine. The cells were seeded into 24-well culture plates at a density of 1 × 10^5/ml and allowed to adhere overnight. Thereafter, the medium was replaced with fresh medium. The cells were pre-treated with DMS or a peptide (P1, P2, P3, P4, or P4S) and then stimulated with 100 ng/ml of lipopolysaccharide (LPS). Supernatants were collected after 24 h and stored at -20°C. Concentrations of mouse TNF-α (mTNF-α) were measured using ELISA (Mouse TNF-α DuoSet ELISA Kit; R&D Systems Europe, UK) according to the manufacturer’s instructions. All tests were repeated three times independently, and the results are expressed as means ± SDs.
# [2] = tested on: Th17 cell differentiation (mouse IL-17); assay type: cell-based; conditions: 1.0 μg/ml; second experiment (Fig. 3B), control 0.1% DMSO; IL-17 ELISA; mean of n = 3
# Protocol: Naïve CD4^+ T cells were isolated from the spleen of wild-type Balb/c mice via magnetic-activated cell sorting using a CD4^+ T Cell Isolation Kit (Miltenyi Biotec, Germany), in accordance with the manufacturer’s instructions. The RPMI medium for stimulating Th17 cell differentiation included 10 μg/ml anti-CD3 (eBioscience, USA), 1.5 μg/ml anti-CD28 (eBioscience), 5 ng/ml transforming growth factor-β (R&D Systems, USA), and 20 ng/ml IL-6 (BioLegend, USA). After cells had been cultured in this conditioned medium for 2 days at 37°C, 100 μl of the supernatant was analyzed for mouse IL-17 (mIL-17) using an IL-17-specific enzyme-linked immunosorbent assay (ELISA). All tests were repeated three times independently, and the means and standard deviations (SDs) from three tests were calculated.
Compound,"inhibition rate against mTNF-α ([1]; 1 μg/ml, J774A.1 cells pre-treated, then 100 ng/ml LPS, vs LPS-only group, Fig. 3C)",inhibition of mIL-17 [2],inhibition of mTNF-α ([1]; 0.1 μg/ml),inhibition of mTNF-α ([1]; 1.0 μg/ml)
CSCC[C@H](NC(=O)[C@H](CC(=O)O)NC(=O)[C@H](CC(=O)O)NC(=O)[C@H](CCSC)NC(=O)[C@@H](NC(=O)[C@H](C)NC(=O)[C@@H]1CCCN1C(=O)[C@@H](N)Cc1ccc(O)cc1)[C@@H](C)O)C(=O)N[C@@H](C)C(=O)N[C@H](C(=O)N[C@@H](CC(=O)O)C(=O)N[C@@H](CO)C(=O)N[C@@H](CC(=O)O)C(=O)N[C@@H](CCC(=O)O)C(=O)N[C@@H](CCC(=O)O)C(=O)N[C@H](C(=O)N[C@@H](CC(=O)O)C(=O)N[C@@H](Cc1ccc(O)cc1)C(=O)O)C(C)C)C(C)C [P4] (H-YPATMDDMAVDSDEEVDY-OH; N-terminus and C-terminus assumed),50.2%,42.4%,,
"YPATMDDMA [P4S, 9-mer human tIK-derived peptide, fragment homolog of P4]",,43.8%,45.5%,50.7%
